Data reported in US11590188B2, “Composition for the treatment of urinary tract infections” (priority 2020, dated 2023).
Like-named read-outs stand apart in the source and are kept apart here.

Columns and labels:
[1] = Earlier antibiotic treatment of the Example 2 subjects; type: in vivo, human; conditions: 500 mg twice daily
Description: This can be compared to the subjects' situation before the study.

[2] = single ingredient, doses of 15-24 grams/day; cited from earlier work

Row | SMILES | Side effects ([1]; 6-9 months) | Recurrence of UTI symptoms ([1]; after 6-9 months) | Side effects [2]
1 | CC1=C(C(=O)O)N2C(=O)[C@@H](NC(=O)[C@H](N)c3ccccc3)[C@H]2SC1 [Cephalexin] | nausea, diarrhoea and yeast infections (oral and vaginal) | UTI symptoms had reoccurred after the course of antibiotics was completed | 
2 | O=C[C@@H](O)[C@@H](O)[C@H](O)[C@H](O)CO [D-mannose] |  |  | bloating, gas and diarrhea
